Test results from patent US10941157B2, “Pesticidal compositions and uses thereof” (Gilead Apollo, LLC, priority 2015, dated 2021).
≈ marks a conversion by molar mass, not a printed value. Where two headings read alike, the source gives them in different places.

Key:
[1] = tested on: Collectotrichum graminicola (Cg); assay: In vitro pathogen growth inhibition assay, Cg; assay type: cell-based; details: 48 h
Method in brief: (§1)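 Spores in 17% V8 liquid medium, or 1.5 mm Rs mycelial plugs in ¼ PDB, incubated with compound; final concentration checked by OD600 for precipitation. OD readings at 24 and 48 h, blank-subtracted, plus visual ratings; value is concentration giving ≥90% growth inhibition.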

[2] = tested on: Puccinia triticina; assay: Foliar protection test for wheat leaf rust control; assay type: in vivo; details: foliar application to wheat (Triticum aestivum cv. Winterhawk), evaluated 10 days later
[3] = tested on: Fusarium moniliforme (Fm); assay: In vitro pathogen growth inhibition assay, Fm; assay type: cell-based; details: Fusarium verticillioides
Method in brief: as §1

[4] = tested on: Phytophthora capsici (Pc); assay: In vitro pathogen growth inhibition assay, Pc; assay type: cell-based; details: 48 h
Method in brief: as §1

[5] = tested on: Diplodia maydis (Dm); assay: In vitro pathogen growth inhibition assay, Dm; assay type: cell-based; details: Stenocarpella maydis, 48 h
Method in brief: as §1

[6] = tested on: Sphaerotheca fuliginea; assay: Foliar protection for cucumber powdery mildew control; assay type: in vivo; details: foliar spray on Cucumis sativus cv. Straight Eight, inoculated 24 hours after treatment, evaluated 7 days later
Method in brief: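 Cucumber plants (cv. Straight Eight, 10 days old) sprayed to wetness on both leaf surfaces, then inoculated 24 h later by shaking sporulating stock plants over them. Held at 23–27 °C, 16 h light, 60% RH. Mildew colonization scored 7 days after inoculation, at compound concentrations of 10 ppm or lower.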

[7] = tested on: Septoria tritici (St); assay: In vitro pathogen growth inhibition assay, St; assay type: cell-based; details: Zymoseptoria tritici, 48 h
Method in brief: as §1

[8] = tested on: Phakopsora pachyrhizi; assay: Foliar protection test for Asian soybean rust control; assay type: in vivo; details: foliar application to soybean (Glycine max AG4832), percent disease area evaluated 14 days later
[9] = tested on: Rhizoctonia solani (Rs); assay: In vitro pathogen growth inhibition assay, Rs (mycelial plugs); assay type: cell-based; details: Rhizoctonia solani, 48 h, mycelial plugs
Method in brief: as §1

[10] = tested on: Fusarium graminearum; assay type: in vivo; details: spray on flowering Triticum aestivum cv. Samson, inoculated 24 hours after treatment, evaluated 14 days later
[11] = tested on: Pythium ultimum; assay: Seed protectant for soybean seedling disease, P. ultimum; assay type: in vivo; details: soybean from treated seeds, 0.025 mg/seed, P. ultimum inoculated
Method: (§2) The pathogen of Rhizoctonia solani inoculum was grown on sterile sorghum; and the pathogen of Pythium ultimum inoculum was grown on white millet.
(§3) Soybean seeds (Glycine max cv. AG4832) were planted in 2.5-inch square pots containing Berger BM2 germination mix amended with fertilizer (e.g., 14-14-14). Pots with soil were inoculated with the pathogen of R. solani or P. ultimum at time of planting. A hole was pressed into the soil to a depth of about 2 to 3 cm; the inoculum was added to the hole, followed by the seed which was then covered with soil. Two seeds per pot were planted. Plants were grown in a growth chamber at conditions of 20 to 24° C., 14 hour light cycle, 500 uM of light, and 65% humidity. The pots inoculated with P. ultimum were sub-irrigated every day; and the pots inoculated with R. solani were sub-irrigated every other day.
(§4) Seedling emergence was captured at 7 and 14 days after seeding. At 14 days, the top of the plant was removed and fresh weight was recorded. The plant weights from the seeds treated with test compounds (e.g., in formulations) were compared to the ones either from the inoculated non-treated seeds or non-inoculated non-treated seeds. Table 10 lists the results of the R. solani control in soybean upon seed treatment with test compounds, and Table 11 lists the results of the P. ultimum control in soybean upon seed treatment with test compounds, respectively.

[12] = tested on: Blumeria graminis f. sp. hordei; assay: Foliar protection test for barley powdery mildew control; assay type: in vivo; details: foliar spray on Hordeum vulgare cv. Perry, inoculated 24 hours after treatment, evaluated 7 days later
Method in brief: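 Six-day-old barley (cv. Perry) sprayed to wetness on both leaf sides; 24 h later inoculated by shaking spores from infected stock plants. Kept at 20 to 22° C, 70% relative humidity; mildew colonization assessed 7 days later.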

[13] = tested on: Rhizoctonia solani; assay: Seed protectant for soybean seedling disease, R. solani; assay type: in vivo; details: soybean from treated seeds, 0.025 mg/seed, R. solani inoculated
Method: as §2, §3, §4

[14] = tested on: Botrtyis cinerea (Bc); assay: In vitro pathogen growth inhibition assay, Bc; assay type: cell-based; details: 48 h
Method in brief: as §1

[15] = tested on: Fusarium virguliforme (Fv); assay: In vitro pathogen growth inhibition assay, Fv; assay type: cell-based
Method in brief: as §1

[16] = tested on: Mycosphaerella graminicola (synthetic Septoria tritici); assay: Foliar protection test for wheat septoria leaf blotch control; assay type: in vivo; details: foliar spray on Triticum aestivum cv. WinterHawk, inoculated 1 hour after treatment, evaluated 16 days later
[17] = tested on: Fusarium graminearum; assay type: in vivo; details: corn from treated seeds, 0.025 mg/seed, F. graminearum inoculated
[18] = percentage of non-inoculated non-treated controls
[19] = ≥90% growth inhibition, 48 hours, vs 2% DMSO control, read-out: Compound Concentration (ppm) sufficient for ≥90% inhibition of Cg
[20] = ≥90% growth inhibition, 48 hours, vs 2% DMSO control, read-out: Compound Concentration (ppm) sufficient for ≥90% inhibition of Fm
[21] = ≥90% growth inhibition, 48 hours, vs 2% DMSO control, read-out: Compound Concentration (ppm) sufficient for ≥90% inhibition of Pc
[22] = ≥90% growth inhibition, 48 hours, vs 2% DMSO control, read-out: Compound Concentration (ppm) sufficient for ≥90% inhibition of Dm
[23] = ≥90% growth inhibition, 48 hours, vs 2% DMSO control, read-out: Compound Concentration (ppm) sufficient for ≥90% inhibition of St
[24] = ≥90% growth inhibition, 48 hours, vs 2% DMSO control, read-out: Compound Concentration (ppm) sufficient for ≥90% inhibition of Rs
[25] = ≥90% growth inhibition, 48 hours, vs 2% DMSO control, read-out: Compound Concentration (ppm) sufficient for ≥90% inhibition of Bc
[26] = ≥90% growth inhibition, 48 hours, vs 2% DMSO control, read-out: Compound Concentration (ppm) sufficient for ≥90% inhibition of Fv

SMILES | Wheat Leaf Rust Control at a compound concentration of 10 ppm or lower [2] | Cucumber Powdery Mildew Control at a compound concentration of 10 ppm or lower [6] | Asian Soybean Rust Control at a compound concentration of 25 ppm or lower [8] | Wheat Fusarium Head Blight Control at a compound concentration of 25 ppm or lower [10] | Barley Powdery Mildew Control at a compound concentration of 10 ppm or lower [12] | Septoria Leaf Blotch Control at a compound concentration of 25 ppm or lower [16] | IC90 [1, 19] | IC90 [3, 20] | IC90 [4, 21] | IC90 [5, 22] | IC90 [7, 23] | IC90 [9, 24] | IC90 [14, 25] | IC90 [15, 26] | also measured
COCCO[C@@H](Cn1c(=O)n(C(C)(C)C(=O)NC(C)C)c(=O)c2c(C)c(-n3nccn3)sc21)c1cc(F)ccc1OC [Compound I-074, (R)-2-(1-(2-(5-fluoro-2-methoxyphenyl)-2-(2-methoxyethoxy)ethyl)-5-methyl-2,4-dioxo-6-(2H-1,2,3-triazol-2-yl)-1,4-dihydrothieno[2,3-d]pyrimidin-3 (2H)-yl)-N-isopropyl-2-methylpropanamide] | A (from 70% to 84% control of wheat leaf rust) | AA (≥85% control of cucumber powdery mildew) | C (from 25 to 49% control of Asian soybean rust) | C (from 25 to 49% control of wheat fusarium head blight) | AA (≥85% control of barley powdery mildew) | AA (≥85% control of wheat septoria leaf blotch) | – | – | – | – | – | – | – | – | IC90 ([1]; ≥90% inhibition, 48 hours vs 2% DMSO control, read-out: Compound Concentration (ppm) sufficient for ≥90% inhibition of growth, Cg): 2 µg/mL (≈ 3.32 µM); IC90 ([3]; ≥90% inhibition, 48 hours vs 2% DMSO control, read-out: Compound Concentration (ppm) sufficient for ≥90% inhibition of growth, Fm): 0.08 µg/mL (≈ 0.133 µM); IC90 ([4]; ≥90% inhibition, 48 hours vs 2% DMSO control, read-out: Compound Concentration (ppm) sufficient for ≥90% inhibition of growth, Pc): ≥ 50 µg/mL; IC90 ([5]; ≥90% inhibition, 48 hours vs 2% DMSO control, read-out: Compound Concentration (ppm) sufficient for ≥90% inhibition of growth, Dm): 2 µg/mL (≈ 3.32 µM); IC90 ([7]; ≥90% inhibition, 48 hours vs 2% DMSO control, read-out: Compound Concentration (ppm) sufficient for ≥90% inhibition of growth, St): > 50 µg/mL; IC90 ([9]; ≥90% inhibition, 48 hours vs 2% DMSO control, read-out: Compound Concentration (ppm) sufficient for ≥90% inhibition of growth, Rs): 0.4 µg/mL (≈ 0.664 µM); Plant Weight ([11]; fresh weight at 14 days): 4.33 g; Improvement in plant weight [11, 18]: 69%; Plant Weight ([13]; fresh weight at 14 days): 2.06 g; Improvement in plant weight [13, 18]: 25.7%; IC90 ([14]; ≥90% inhibition, 48 hours vs 2% DMSO control, read-out: Compound Concentration (ppm) sufficient for ≥90% inhibition of growth, Bc): 2 µg/mL (≈ 3.32 µM); IC90 ([15]; ≥90% inhibition, 48 hours vs 2% DMSO control, read-out: Compound Concentration (ppm) sufficient for ≥90% inhibition of growth, Fv): 0.4 µg/mL (≈ 0.664 µM)
COc1ccc(F)cc1[C@@H](O)Cn1c(=O)n(C(C)(C)C(=O)NC(C)C)c(=O)c2c(C)c(-n3nccn3)sc21 [Compound I-185, (R)-2-(1-(2-(5-fluoro-2-methoxyphenyl)-2-hydroxyethyl)-5-methyl-2,4-dioxo-6-(2H-1,2,3-triazol-2-yl)-1,4-dihydrothieno[2,3-d]pyrimidin-3 (2H)-yl)-N-isopropyl-2-methylpropanamide] | AA (≥85% control of wheat leaf rust) | AA (≥85% control of cucumber powdery mildew) | AA (≥85% control of Asian soybean rust) | A (from 70% to 84% control of wheat fusarium head blight) | AA (≥85% control of barley powdery mildew) | AA (≥85% control of wheat septoria leaf blotch) | 0.4 µg/mL (≈ 0.734 µM) | 0.08 µg/mL (≈ 0.147 µM) | ≥ 10 µg/mL | 0.4 µg/mL (≈ 0.734 µM) | ≥ 50 µg/mL | 0.08 µg/mL (≈ 0.147 µM) | 0.4 µg/mL (≈ 0.734 µM) | 0.08 µg/mL (≈ 0.147 µM) | Plant Height ([17]; Table 12): 45.66 cm
COc1ccc(F)cc1[C@H](Cn1c(=O)n([C@H](C)C(=O)N(C)C(C)C)c(=O)c2c(C)c(-n3nccn3)sc21)OCCC#N [Compound I-205, (R)-2-(1-((R)-2-(2-cyanoethoxy)-2-(5-fluoro-2-methoxyphenyl)ethyl)-5-methyl-2,4-dioxo-6-(2H-1,2,3-triazol-2-yl)-1,4-dihydrothieno[2,3-d]pyrimidin-3 (2H)-yl)-N-isopropyl-N-methylpropanamide] | AA (≥85% control of wheat leaf rust) | AA (≥85% control of cucumber powdery mildew) | AA (≥85% control of Asian soybean rust) | C (from 25 to 49% control of wheat fusarium head blight) | AA (≥85% control of barley powdery mildew) | AA (≥85% control of wheat septoria leaf blotch) | 0.4 µg/mL (≈ 0.669 µM) | 0.4 µg/mL (≈ 0.669 µM) | > 50 µg/mL | ≥ 0.08 µg/mL | > 50 µg/mL | 0.08 µg/mL (≈ 0.134 µM) | 0.4 µg/mL (≈ 0.669 µM) | 0.4 µg/mL (≈ 0.669 µM) | Plant Height ([17]; Table 13): 41.47 cm
